Reference: article PMC10861747, “In vitro evaluation of the reductive carbonyl idarubicin metabolism to evaluate inhibitors of the formation of cardiotoxic idarubicinol via carbonyl and aldo–keto reductases” (Archives of Toxicology, 2024)

What was measured:
AKR1C3 [1] = target: T1, AKR1C3 (Homo sapiens, UniProt P42330); assay: inhibition of idarubicinol formation (UPLC-MS/MS) in HEK293 cells over-expressing AKR1C3, compared with empty-vector control; format: cell-based
T1 construct: AKR1C3 human ORF-Clone transiently over-expressed in HEK293 cells
T1 sequence (P42330 1-323): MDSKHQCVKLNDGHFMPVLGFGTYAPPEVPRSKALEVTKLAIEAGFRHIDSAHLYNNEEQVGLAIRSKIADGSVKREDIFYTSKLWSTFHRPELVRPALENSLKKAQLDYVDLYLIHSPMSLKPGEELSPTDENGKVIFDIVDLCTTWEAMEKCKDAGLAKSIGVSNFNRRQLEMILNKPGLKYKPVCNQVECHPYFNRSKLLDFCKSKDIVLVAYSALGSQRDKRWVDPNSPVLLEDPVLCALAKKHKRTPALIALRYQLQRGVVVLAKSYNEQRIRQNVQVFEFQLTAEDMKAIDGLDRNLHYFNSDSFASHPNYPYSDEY

AKR1C3 [2] = target: T1, AKR1C3; assay: idarubicinol formation (UPLC-MS/MS) in AKR1C3-transfected HEK293 cells versus empty-vector cells, […] idarubicin; format: cell-based

| IC50 (AKR1C3 [1]) [nM] | Compound | idarubicinol formation (UPLC-MS/MS) in AKR1C3-transfected HEK293 cells versus em (AKR1C3 [2]) |
| --- | --- | --- |
| 500 ± 100 | O=C1C[C@@]2(C(=O)N1)C(=O)N(Cc1ccc(Br)cc1F)C(=O)c1cccn12 [ranirestat] |  |
|  | CC(=O)[C@]1(O)Cc2c(O)c3c(c(O)c2[C@@H](O[C@H]2C[C@H](N)[C@H](O)[C@H](C)O2)C1)C(=O)c1ccccc1C3=O [idarubicin] | the over-expression lead to a significantly higher idarubicinol formation in HEK293 cells |
